# Laboratory results published in publication PMC11435058, “Synthesis of New Thiazole-Privileged Chalcones as Tubulin Polymerization Inhibitors with Potential Anticancer Activities” (Pharmaceuticals, 2024).
# Read-outs that look alike come from different tables or passages of the source.
# Legend:
# [1] = test system: COLO 205; assay: NCI-60 anticancer screen (SRB; single dose and five doses); settings: Homo sapiens, COLO 205, 48 h, read-out: Growth Percentage
# [2] = test system: DU-145; assay: as above; settings: Homo sapiens, DU-145, 48 h, read-out: Growth Percentage
# [3] = test system: K-562; assay: as above; settings: Homo sapiens, K562, 48 h, read-out: Growth Percentage
# [4] = test system: NCI/ADR-RES; assay: as above; settings: Homo sapiens, 48 h, read-out: Growth Percentage
# [5] = test system: PC-3; assay: as above; settings: Homo sapiens, PC-3, 48 h, read-out: Growth Percentage
# [6] = test system: UACC-62; assay: as above; settings: Homo sapiens, UACC-62, 48 h, read-out: Growth Percentage
# [7] = test system: EKVX; assay: as above; settings: Homo sapiens, 48 h, read-out: Growth Percentage
# [8] = test system: SK-MEL-5; assay: as above; settings: Homo sapiens, SK-MEL-5, 48 h, read-out: Growth Percentage
# [9] = test system: OVCAR-5; assay: as above; settings: Homo sapiens, OVCAR-5, 48 h, read-out: Growth Percentage
# [10] = test system: KM12; assay: as above; settings: Homo sapiens, KM12, 48 h, read-out: Growth Percentage
# [11] = test system: MCF7; assay: as above; settings: Homo sapiens, MCF7, 48 h, read-out: Growth Percentage
# [12] = test system: MOLT-4; assay: as above; settings: Homo sapiens, MOLT-4, 48 h, read-out: Growth Percentage
# [13] = test system: T-47D; assay: as above; settings: Homo sapiens, T47D, 48 h, read-out: Growth Percentage
# [14] = test system: LOX IMVI; assay: as above; settings: Homo sapiens, 48 h, read-out: Growth Percentage
# [15] = test system: UACC-257; assay: as above; settings: Homo sapiens, UACC-257, 48 h, read-out: Growth Percentage
# [16] = test system: SK-MEL-28; assay: as above; settings: Homo sapiens, SK-MEL-28, 48 h, read-out: Growth Percentage
# [17] = test system: 60 human tumor cell lines panel; assay: NCI-60 anticancer screen, whole panel (means and ranges over the cell lines); assay type: cell-based; settings: Homo sapiens, 48 h
# [18] = test system: A498; assay: NCI-60 anticancer screen (SRB; single dose and five doses); settings: Homo sapiens, A498, 48 h, read-out: Growth Percentage, A498; dose of 10 μM
# [19] = test system: HL-60(TB); assay: as above; settings: Homo sapiens, HL-60, 48 h, read-out: Growth Percentage
# [20] = test system: HCT-116; assay: as above; settings: Homo sapiens, HCT-116, 48 h, read-out: Growth Percentage
# [21] = test system: HT29; assay: as above; settings: Homo sapiens, HT-29, 48 h, read-out: Growth Percentage
# [22] = test system: MDA-MB-468; assay: as above; assay type: cell-based, human; settings: Homo sapiens, 48 h; MDA-MB-468; dose of 10 μM; read-out: Growth Percentage
# Experimental: The methodology of the NCI anticancer screening has been described in detail elsewhere (http://www.dtp.nci.nih.gov). For detailed information, see Appendix A in the Supplementary Materials.
# 4.2.1. Screening of the anticancer activity against a panel of 60 cell Lines.
# The methodology of the NCI anticancer screening has been described in detail elsewhere (http://www.dtp.nci.nih.gov.) Briefly, the primary anticancer assay was performed at approximately 60 human tumor cell lines panel derived from nine neoplastic diseases, in accordance with the protocol of the Drug Evaluation Branch, National Cancer Institute, Bethesda. Tested compounds were added to the culture at a single concentration (10μM) and the cultures were incubated for 48 h. End -point determinations were made with a protein binding dye, SRB. Results for each tested compound was reported as the percent of growth of the treated cells when compared to the untreated control cells. The percentage growth was evaluated spectrophotometrically versus controls not treated with test agents. […]
# [23] = test system: ACHN; assay: as above; settings: Homo sapiens, 48 h, read-out: Growth Percentage
# [24] = test system: CCRF-CEM; assay: NCI-60 anticancer screen (SRB; single dose 10 μM and five doses); settings: Homo sapiens, 48 h, read-out: Growth Percentage
# [25] = test system: HOP-92; assay: NCI-60 anticancer screen (SRB; single dose and five doses); settings: Homo sapiens, HOP-92, 48 h, read-out: Growth Percentage
# [26] = read-out: growth percentages against most of the tested cells (lowest to highest)
# [27] = mean over the tested cell lines, dose of 10 μM, read-out: Mean growth percentage
# [28] = range over the cell lines, dose of 10 μM, read-out: growth percentages against most of the tested cells (lowest to highest)
compound,measurement,setting,value
"Cc1[nH]c(=S)sc1C(=O)/C=C/c1cccc(F)c1 [2b, (E)-3-(3-Fluorophenyl)-1-(4-Methyl-2-Thioxo-2,3-Dihydrothiazol-5-yl)Prop-2-En-1-One]",activity at 10 µM,[1],94.5%
same,activity at 10 µM,[2],12.9%
same,activity at 10 µM,[3],22.8%
same,activity at 10 µM,[4],10.8%
same,activity at 10 µM,[5],54.7%
same,activity at 10 µM,[6],58.3%
same,activity at 10 µM,[7],68.6%
same,activity at 10 µM,[8],62.2%
same,activity at 10 µM,[9],88.2%
same,activity at 10 µM,[10],11.9%
same,activity at 10 µM,[11],7.97%
same,activity at 10 µM,[12],43.6%
same,activity at 10 µM,[13],0.69%
same,activity at 10 µM,[14],13.8%
same,activity at 10 µM,[15],83.7%
same,activity at 10 µM,[16],93.7%
same,activity at 10 µM,[17]; [26],-22.7 to 106%
same,activity at 10 µM,[17]; [27],47.5%
same,activity at 10 µM,[18],106%
same,activity at 10 µM,[19],12%
same,activity at 10 µM,[20],21.2%
same,activity at 10 µM,[21],47.1%
same,activity at 10 µM,[22],-22.7%
same,activity at 10 µM,[23],56%
same,activity at 10 µM,[24],15.4%
"COc1ccc(/C=C/C(=O)c2sc(=S)[nH]c2C)cc1OC [2o, (E)-3-(3,4-Dimethoxyphenyl)-1-(4-Methyl-2-Thioxo-2,3-Dihydrothiazol-5-yl)Prop-2-En-1-One]",activity at 10 µM,[1],116%
same,activity at 10 µM,[2],48.1%
same,activity at 10 µM,[3],32.4%
same,activity at 10 µM,[4],26.9%
same,activity at 10 µM,[5],68.9%
same,activity at 10 µM,[6],63.9%
same,activity at 10 µM,[7],54.2%
same,activity at 10 µM,[8],63.1%
same,activity at 10 µM,[9],131%
same,activity at 10 µM,[10],42.2%
same,activity at 10 µM,[11],28.9%
same,activity at 10 µM,[12],73.8%
same,activity at 10 µM,[13],44.1%
same,activity at 10 µM,[14],26.9%
same,activity at 10 µM,[15],71.4%
same,activity at 10 µM,[25],83.7%
same,activity at 10 µM,[16],83.2%
same,activity at 10 µM,[17]; [27],55.1%
same,activity at 10 µM,[17]; [28],-0.42 to 126%
same,activity at 10 µM,[18],126%
same,activity at 10 µM,[19],35.6%
same,activity at 10 µM,[20],34.5%
same,activity at 10 µM,[21],97.7%
same,activity at 10 µM,[22],-0.42%
same,activity at 10 µM,[23],64.9%
same,activity at 10 µM,[24],15.5%
"Cc1[nH]c(=S)sc1C(=O)/C=C/c1ccccc1Cl [2d, (E)-3-(2-Chlorophenyl)-1-(4-Methyl-2-Thioxo-2,3-Dihydrothiazol-5-yl)Prop-2-En-1-One]",activity at 10 µM,[1],118%
same,activity at 10 µM,[2],76%
same,activity at 10 µM,[3],47.4%
same,activity at 10 µM,[4],88.8%
same,activity at 10 µM,[5],71.8%
same,activity at 10 µM,[6],72.9%
same,activity at 10 µM,[7],35.6%
same,activity at 10 µM,[8],68.5%
same,activity at 10 µM,[9],116%
same,activity at 10 µM,[10],63.8%
same,activity at 10 µM,[11],28.9%
same,activity at 10 µM,[12],84.2%
same,activity at 10 µM,[13],47.3%
same,activity at 10 µM,[14],57.5%
same,activity at 10 µM,[15],87.2%
same,activity at 10 µM,[16],101%
same,activity at 10 µM,[17]; [27],79.4%
same,activity at 10 µM,[17]; [28],14.1 to 116%
same,activity at 10 µM,[18],116%
same,activity at 10 µM,[19],53%
same,activity at 10 µM,[20],44.6%
same,activity at 10 µM,[21],122%
same,activity at 10 µM,[22],30.8%
same,activity at 10 µM,[23],93.4%
same,activity at 10 µM,[24],46.8%
"COc1cccc(/C=C/C(=O)c2sc(=S)[nH]c2C)c1OC [2m, (E)-3-(2,3-Dimethoxyphenyl)-1-(4-Methyl-2-Thioxo-2,3-Dihydrothiazol-5-yl)Prop-2-En-1-One]",activity at 10 µM,[1],103%
same,activity at 10 µM,[2],42%
same,activity at 10 µM,[3],27.5%
same,activity at 10 µM,[4],30.9%
same,activity at 10 µM,[5],41.6%
same,activity at 10 µM,[6],45.5%
same,activity at 10 µM,[7],54.5%
same,activity at 10 µM,[8],23.5%
same,activity at 10 µM,[9],81.7%
same,activity at 10 µM,[10],25.3%
same,activity at 10 µM,[11],16.6%
same,activity at 10 µM,[12],36.8%
same,activity at 10 µM,[13],34.5%
same,activity at 10 µM,[14],21.7%
same,activity at 10 µM,[15],35.4%
same,activity at 10 µM,[25],61.5%
same,activity at 10 µM,[16],70%
same,activity at 10 µM,[17]; [27],49.9%
same,activity at 10 µM,[17]; [28],5.15 to 109%
same,activity at 10 µM,[18],109%
same,activity at 10 µM,[19],12.7%
same,activity at 10 µM,[20],46.5%
same,activity at 10 µM,[22],41.1%
same,activity at 10 µM,[23],52.5%
same,activity at 10 µM,[24],12.4%
"Cc1[nH]c(=S)sc1C(=O)/C=C/c1ccccc1 [2a, (E)-1-(4-Methyl-2-Thioxo-2,3-Dihydrothiazol-5-yl)-3-Phenylprop-2-En-1-One]",activity at 10 µM,[2],27.9%
same,activity at 10 µM,[3],51%
same,activity at 10 µM,[4],64.8%
same,activity at 10 µM,[5],77.6%
same,activity at 10 µM,[6],65.3%
same,activity at 10 µM,[7],73.1%
same,activity at 10 µM,[8],68.8%
same,activity at 10 µM,[9],129%
same,activity at 10 µM,[10],29%
same,activity at 10 µM,[11],19.8%
same,activity at 10 µM,[12],74.2%
same,activity at 10 µM,[14],31.1%
same,activity at 10 µM,[15],76.2%
same,activity at 10 µM,[25],89.6%
same,activity at 10 µM,[16],85.2%
same,activity at 10 µM,[17]; [27],65%
same,activity at 10 µM,[17]; [28],14.1 to 129%
same,activity at 10 µM,[18],106%
same,activity at 10 µM,[19],49.6%
same,activity at 10 µM,[20],49.4%
same,activity at 10 µM,[21],99.7%
same,activity at 10 µM,[22],20.8%
same,activity at 10 µM,[23],71.8%
same,activity at 10 µM,[24],37.2%
"COc1ccc(/C=C/C(=O)c2sc(=S)[nH]c2C)cc1 [2l, (E)-3-(4-Methoxyphenyl)-1-(4-Methyl-2-Thioxo-2,3-Dihydrothiazol-5-yl)Prop-2-En-1-One]",activity at 10 µM,[2],58.5%
same,activity at 10 µM,[3],56.6%
same,activity at 10 µM,[4],76.4%
same,activity at 10 µM,[5],82.2%
same,activity at 10 µM,[6],71.8%
same,activity at 10 µM,[7],84.8%
same,activity at 10 µM,[8],55.9%
same,activity at 10 µM,[9],145%
same,activity at 10 µM,[10],42.2%
same,activity at 10 µM,[11],30.8%
same,activity at 10 µM,[12],81.5%
same,activity at 10 µM,[14],44.2%
same,activity at 10 µM,[15],68%
same,activity at 10 µM,[25],101%
same,activity at 10 µM,[16],102%
same,activity at 10 µM,[17]; [26],15.1 to 120%
same,activity at 10 µM,[17]; [27],74.6%
same,activity at 10 µM,[18],120%
same,activity at 10 µM,[19],58.5%
same,activity at 10 µM,[20],76%
same,activity at 10 µM,[21],96.8%
same,activity at 10 µM,[22],15.1%
same,activity at 10 µM,[23],85.6%
same,activity at 10 µM,[24],59%
